{"source": "paper PMC12615753", "about": "“Glutathione as a taste modulator: molecular mechanisms of interaction with umami and sweet taste receptors” (Food Chemistry: Molecular Sciences, 2025)", "key": {"hTAS1R1 A170W/rTAS1R3": {"molecular_target": "T1, hTAS1R1 A170W/rTAS1R3 (UniProt Q7RTX1+Q923K1, A170W)", "T1 construct": "The cDNA coding region of rTAS1R3 was synthesized with optimized-codon usage for human expression; expressed in transfected cells; host or cells: HEK293T/17", "T1 sequence (Q7RTX1 21-841 A170W)": "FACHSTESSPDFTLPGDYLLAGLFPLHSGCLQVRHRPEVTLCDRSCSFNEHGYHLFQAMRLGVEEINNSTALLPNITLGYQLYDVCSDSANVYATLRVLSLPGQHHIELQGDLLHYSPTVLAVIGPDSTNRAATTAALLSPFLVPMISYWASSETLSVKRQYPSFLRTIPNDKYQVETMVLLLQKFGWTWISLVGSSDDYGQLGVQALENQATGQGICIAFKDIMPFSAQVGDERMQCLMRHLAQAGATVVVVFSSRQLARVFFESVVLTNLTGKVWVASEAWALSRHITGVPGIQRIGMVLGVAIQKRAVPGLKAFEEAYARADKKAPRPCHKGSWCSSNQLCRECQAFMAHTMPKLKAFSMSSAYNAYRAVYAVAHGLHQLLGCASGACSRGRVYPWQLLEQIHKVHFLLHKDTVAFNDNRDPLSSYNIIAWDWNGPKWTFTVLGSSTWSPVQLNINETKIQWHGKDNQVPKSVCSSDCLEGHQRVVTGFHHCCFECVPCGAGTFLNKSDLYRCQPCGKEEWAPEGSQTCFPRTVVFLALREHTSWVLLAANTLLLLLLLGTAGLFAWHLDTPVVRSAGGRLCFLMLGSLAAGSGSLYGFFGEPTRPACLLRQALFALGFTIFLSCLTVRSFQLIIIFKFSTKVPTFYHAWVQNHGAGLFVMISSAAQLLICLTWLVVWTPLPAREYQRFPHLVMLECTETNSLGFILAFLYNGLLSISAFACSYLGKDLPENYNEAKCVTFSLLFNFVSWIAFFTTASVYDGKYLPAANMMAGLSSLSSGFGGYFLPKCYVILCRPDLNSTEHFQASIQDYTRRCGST", "T1 sequence (Q923K1 21-858)": "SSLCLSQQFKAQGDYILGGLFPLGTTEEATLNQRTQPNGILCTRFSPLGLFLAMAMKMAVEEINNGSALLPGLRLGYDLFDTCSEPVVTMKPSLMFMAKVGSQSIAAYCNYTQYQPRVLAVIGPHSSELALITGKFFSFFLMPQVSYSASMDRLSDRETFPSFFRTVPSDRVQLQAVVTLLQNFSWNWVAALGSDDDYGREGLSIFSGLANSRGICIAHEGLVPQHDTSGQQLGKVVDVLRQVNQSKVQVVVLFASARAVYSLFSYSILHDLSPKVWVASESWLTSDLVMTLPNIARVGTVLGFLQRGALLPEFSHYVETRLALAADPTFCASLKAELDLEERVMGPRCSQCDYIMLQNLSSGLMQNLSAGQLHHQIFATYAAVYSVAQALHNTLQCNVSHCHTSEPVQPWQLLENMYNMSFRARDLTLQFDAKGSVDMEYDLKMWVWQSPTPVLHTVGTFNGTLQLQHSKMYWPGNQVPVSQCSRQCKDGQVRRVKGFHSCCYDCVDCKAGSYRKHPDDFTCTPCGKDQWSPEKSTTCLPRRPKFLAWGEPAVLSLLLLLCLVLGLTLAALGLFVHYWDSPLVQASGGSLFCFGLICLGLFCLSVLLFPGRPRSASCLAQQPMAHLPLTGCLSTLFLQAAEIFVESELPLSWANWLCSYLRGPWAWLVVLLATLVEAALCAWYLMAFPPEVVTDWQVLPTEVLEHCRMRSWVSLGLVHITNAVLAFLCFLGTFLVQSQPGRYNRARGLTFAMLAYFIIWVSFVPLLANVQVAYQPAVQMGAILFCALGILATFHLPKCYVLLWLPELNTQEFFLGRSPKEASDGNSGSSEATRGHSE", "test": "Calcium assay, hTAS1R1 mutant co-expressed with rTAS1R3", "format": "cell-based, human, rat"}, "hTAS1R2/rTAS1R3(Mut1)": {"molecular_target": "T2, hTAS1R2/rTAS1R3(Mut1) (UniProt Q8TE23+Q923K1, A277V/L68N/R278H/S168G/S302A)", "T2 construct": "The cDNA coding region of rTAS1R3 was synthesized with optimized-codon usage for human expression; expressed in transfected cells", "T2 sequence (Q8TE23 20-839, stated change not applied)": "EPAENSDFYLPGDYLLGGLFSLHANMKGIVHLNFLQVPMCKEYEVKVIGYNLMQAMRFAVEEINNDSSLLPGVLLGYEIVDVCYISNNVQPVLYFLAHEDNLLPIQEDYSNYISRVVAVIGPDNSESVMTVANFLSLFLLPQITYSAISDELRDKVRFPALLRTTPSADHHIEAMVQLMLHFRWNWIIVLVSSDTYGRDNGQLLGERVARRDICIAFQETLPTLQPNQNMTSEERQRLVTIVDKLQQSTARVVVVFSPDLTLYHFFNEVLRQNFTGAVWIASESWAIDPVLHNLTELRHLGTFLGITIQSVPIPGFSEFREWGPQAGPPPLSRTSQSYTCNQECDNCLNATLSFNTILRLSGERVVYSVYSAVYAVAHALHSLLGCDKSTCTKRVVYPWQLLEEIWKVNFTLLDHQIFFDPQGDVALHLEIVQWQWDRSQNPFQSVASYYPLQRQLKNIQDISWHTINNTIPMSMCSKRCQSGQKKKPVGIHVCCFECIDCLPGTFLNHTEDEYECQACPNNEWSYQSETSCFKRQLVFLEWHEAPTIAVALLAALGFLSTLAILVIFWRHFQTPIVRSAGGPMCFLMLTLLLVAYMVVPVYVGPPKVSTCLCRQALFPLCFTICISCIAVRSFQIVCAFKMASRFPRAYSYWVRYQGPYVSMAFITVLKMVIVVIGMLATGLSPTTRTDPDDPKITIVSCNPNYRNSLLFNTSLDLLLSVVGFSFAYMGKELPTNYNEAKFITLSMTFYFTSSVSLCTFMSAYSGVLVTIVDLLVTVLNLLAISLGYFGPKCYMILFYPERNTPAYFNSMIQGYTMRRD", "T2 sequence (Q923K1 21-858 L68N/S168G/A277V/R278H/S302A)": "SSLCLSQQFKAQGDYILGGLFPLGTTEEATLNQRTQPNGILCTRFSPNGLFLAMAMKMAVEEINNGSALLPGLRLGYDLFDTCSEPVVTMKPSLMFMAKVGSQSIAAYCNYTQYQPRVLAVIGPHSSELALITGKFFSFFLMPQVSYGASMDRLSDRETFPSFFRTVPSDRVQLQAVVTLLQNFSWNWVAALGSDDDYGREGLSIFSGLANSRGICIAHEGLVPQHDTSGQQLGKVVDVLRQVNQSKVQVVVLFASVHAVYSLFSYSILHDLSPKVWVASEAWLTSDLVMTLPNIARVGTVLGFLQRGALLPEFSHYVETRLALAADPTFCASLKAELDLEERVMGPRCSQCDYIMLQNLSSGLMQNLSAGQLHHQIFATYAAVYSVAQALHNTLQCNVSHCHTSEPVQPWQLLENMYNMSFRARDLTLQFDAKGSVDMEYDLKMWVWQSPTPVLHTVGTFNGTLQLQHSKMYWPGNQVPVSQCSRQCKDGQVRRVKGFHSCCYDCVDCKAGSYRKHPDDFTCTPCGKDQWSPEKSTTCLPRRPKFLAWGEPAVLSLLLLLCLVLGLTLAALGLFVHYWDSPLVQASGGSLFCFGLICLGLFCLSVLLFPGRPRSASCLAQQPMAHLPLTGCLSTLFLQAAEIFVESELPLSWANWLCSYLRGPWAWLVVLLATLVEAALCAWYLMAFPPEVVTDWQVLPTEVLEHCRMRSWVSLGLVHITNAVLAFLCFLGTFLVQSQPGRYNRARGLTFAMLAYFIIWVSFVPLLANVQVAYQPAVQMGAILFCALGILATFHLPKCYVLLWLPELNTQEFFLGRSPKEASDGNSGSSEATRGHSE", "test": "Calcium assay, mutated rTAS1R3 co-expressed with hTAS1R2", "format": "cell-based, human, rat", "experimental": "HEK293T/17 cells (ATCC CRL-11268) were seeded into clear bottom black 96-well plates coated with poly-D-lysine at a density of 32500 cells/well in 100 μL of DMEM containing 4.5 g/L glucose and supplemented with penicillin/streptomycin, 2 mM GlutaMAX and 10 % dialyzed fetal bovine serum. The plates were incubated for 24 h at 37 °C and 7.3 % CO2 in a humidified atmosphere. After incubation, using Fugene® 4 K (0.46 μL/well, Promega, Illkirch, France), the cells were transiently transfected with pcDNA3-hTAS1R1-WT (60 ng/well) or TAS1R1 mutants, pcDNA4-rTAS1R3 (60 ng/well), pcDNA3-Gα15i2 (10 ng/well), and pGP-CMV-GCaMP6s (Addgene #40753; 10 ng/well) as a genetically encoded calcium indicator. […] After 20 s of basal fluorescence calcium measurement, the cells were stimulated via automatic injection of a range of compounds in eight wells, and the signal emission was recorded for an additional 70 s, via a FlexStation 3® fluorometric microplate reader (Molecular Devices, San Jose, CA, USA). […] The emitted fluorescence was measured at a wavelength of 510 nm after excitation at 488 nm. […] For each well, the decrease in the raw fluorescence as the relative fluorescence changed was calculated as ΔF/F0. Replicates were averaged for the wells subjected to the same stimuli, the background signal was subtracted, and the fluorescence changes in mock-transfected cells were subtracted. […]"}}, "data": [{"smiles": "N[C@@H](CCC(=O)N[C@@H](CS)C(=O)NCC(=O)O)C(=O)O", "note": "[GSH, γ-L-glutamyl-L-cysteinyl-glycine]", "values": [{"measurement": "EC50", "setting": "hTAS1R1 A170W/rTAS1R3", "result": "5290 ± 1560", "unit": "µM"}, {"measurement": "Max ∆F/F0", "setting": "hTAS1R1 A170W/rTAS1R3; A170W, GSH", "result": "0.09 ± 0.01"}, {"measurement": "R1 = mutant EC50/WT EC50", "setting": "hTAS1R1 A170W/rTAS1R3; A170W, GSH", "result": 2.1}, {"measurement": "effect of 10 mM GSH on the response to sucralose", "setting": "hTAS1R2/rTAS1R3(Mut1)", "result": "not increased"}]}, {"smiles": "N[C@@H](CCC(=O)O)C(=O)O", "note": "[L-Glu, L-glutamic acid, reference compound]", "values": [{"measurement": "response to the agonist alone, vs WT", "setting": "hTAS1R1 A170W/rTAS1R3; A170W", "result": "completely suppressed"}]}, {"smiles": "OC[C@H]1O[C@H](O[C@]2(CCl)O[C@H](CCl)[C@@H](O)[C@@H]2O)[C@H](O)[C@@H](O)[C@H]1Cl", "note": "[sucralose, reference compound]", "values": [{"measurement": "EC50", "setting": "hTAS1R2/rTAS1R3(Mut1); sucralose alone, Fig. 4A", "result": "283 ± 55", "unit": "µM"}]}]}
